This is an account of results in article PMC5114273, “Activity of Scorpion Venom-Derived Antifungal Peptides against Planktonic Cells of Candida spp. and Cryptococcus neoformans and Candida albicans Biofilms” (Frontiers in Microbiology, 2016).

In brackets after ≈: the same amount, converted by molar mass. Ends that are not written are not given here.

Series [1] relates to C. albicans SC5314 biofilm. The series can be described thus: Sessile MIC50 of C. albicans SC5314 biofilm (XTT reduction, supplement). It is filed as cell-based, Candida albicans. The procedure: Figure 2R. Difference between supernatant volume used for OD 490nm reading (50 and 80µL) using XTT
reduce assay. The experiments were performed four times independently. Statistical analyses: two-way
ANOVA test and Turkey pos-test (**** P ≤ 0,0001; *** P ≤ 0,001; ** P ≤ 0,01; * P ≤ 0,05).
Table 1R. Sessile Minimum Inhibitory Concentration 50% (SMIC50) of C. albicans SC5314
biofilm in response to Amphotericin B serially diluted from 0,01562 to 16 µg/mL.
(Tetrazolium dyes change colour on reduction, which living cells bring about.)

In series [2] the test system is C. neoformans (B3501 serotype D). Kind of series: microbe, parasite or virus in culture. The following applies: Cryptococcus neoformans; RPMI-1640 pH 7.0, 10^4 cells/mL, 37°C, 48 h, shaking 200 rpm; at least three experiments; read-out: Minimum inhibitory concentration, C. neoformans (B3501 serotype D). In kind it is cell-based, Cryptococcus neoformans var. neoformans. The text has this:
(§1) Candida albicans strain SC 5314 (ATCC MYA-2876) was provided by Dr. Joshua Nosanchuk (New York, NY, USA). C. glabrata ATCC 90030, C. parapsilosis ATCC 22019, and C. tropicalis ATCC 750 were provided by Dr. Érika Kioshima (Universidade Estadual de Maringá, Paraná, Brazil). C. neoformans var. grubii strain H99 (serotype A, ATCC 208821) was provided by Dr. John Perfect (Durham, NC, USA). C. neoformans var. neoformans B3501 (serotype D, ATCC 34873) was obtained from ATCC (Manassas, VA, USA). All strains were stored as frozen stocks in 35% glycerol at -80°C. Before each experiment, all Candida spp. strains were grown in Sabouraud’s dextrose broth overnight at 30°C with agitation. C. neoformans strains were grown in the same conditions for 24 h. Fungal cells were collected by centrifugation, washed three times in phosphate buffered saline (PBS) (137 mM NaCl, 2.7 mM KCl, 10 mM Na2HPO4, 2 mM KH2PO4) and inoculated in Roswell Park Memorial Institute (RPMI) 1640 medium supplemented with L-glutamine and buffered to pH 7.0 with 165 mM 3-(N-morpholino)propanesulfonic acid for experiments described below.
(§2) In vitro antifungal assays were performed according to broth microdilution susceptibility test from Clinical and Laboratory Standards Institute (CLSI) M27-A3 guidelines with some modifications. Briefly, twofold serial dilutions of each peptide were prepared in 96-well polystyrene microplates to a final volume of 50 μL. Amphotericin B (Amp B; A2942, Sigma-Aldrich), a known antifungal drug, was used as a positive control. Final concentrations of each peptide and Amp B ranged from 100 to 0.78 μM and 16 to 0.03 μg/mL, respectively, except in tests with C. glabrata and C. parapsilosis, where the final peptide concentration ranged from 400 to 0.78 μM. In each plate, wells were included without peptide as a growth control. Then, 50 μL of the adjusted inoculum in RPMI-1640 medium were added to each well to a final concentration of 2 × 10^3 cells/mL for Candida spp. and 10^4 cells/mL for C. neoformans strains. The plates were incubated at 37°C for 24 and 48 h, respectively. The strains of C. neoformans were also incubated with shaking (200 rpm). […] The experiments were performed at least three times on separate dates.

Series [3] concerns C. neoformans (H99 serotype A). Kind of series: microbe, parasite or virus in culture. It is filed as cell-based, Cryptococcus neoformans var. grubii. The following applies: Cryptococcus neoformans; RPMI-1640 pH 7.0, 10^4 cells/mL, 37°C, 48 h, shaking 200 rpm; at least three experiments; read-out: Minimum inhibitory concentration, C. neoformans (H99 serotype A).
From the text: as §1, §2

In series [4] the test system is C. albicans SC 5314 biofilm, initial cell adherence. The series can be described thus: C. albicans biofilm, initial adherence (XTT reduction). It is filed as cell-based, Candida albicans. As to conditions: at 0.25 μg/mL. The procedure: (§3) The effects of the peptides NDBP-4.23, ToAP1, ToAP2, and NDBP-5.7 on C. albicans biofilms were analyzed according to the protocol described by [Pierce et al. (2008)]. Briefly, C. albicans SC 5314 (10^6 cells/mL) was grown on 96-well polystyrene microplates and 4 h after seeding the peptides or Amp B were added to assess their effects on the first step of biofilm formation, the initial cell adherence. After 24 h of treatment, biofilm formation was measured by the metabolic assay based on the reduction of 2,3-bis-(2-methoxy-4-nitro-5-sulfophenyl)-2H-tetrazolium-5-carboxanilide (XTT). For the purpose of investigating effects of peptides on mature biofilms, the Candida cells were allowed to grow for 24 h prior to addition of the peptides or Amp B and the XTT assay was performed in the same way. All results were analyzed for statistical significance using analysis of variance (ANOVA) followed by Tukey post-test using GraphPad Prism 6 and expressed in terms of biofilm viability as XTT-readings percentage normalized by the control groups. Each compound was tested in triplicate and the experiments were performed at least twice on separate dates.

The test system of series [5] is C. albicans SC 5314 mature biofilm. The series can be described thus: C. albicans mature biofilm (XTT reduction). In kind it is cell-based, Candida albicans. As to conditions: at 2 μg/mL. The procedure:
as §3

Series [6] deals with C. tropicalis (ATCC 750). The series can be described thus: microbe, parasite or virus in culture. In kind it is cell-based, Candida tropicalis. The following applies: Candida tropicalis, ATCC750; RPMI-1640 pH 7.0, 2 × 10^3 cells/mL, 37°C, 24 h; complete inhibition of visible growth; at least three experiments; read-out: Minimum inhibitory concentration, C. tropicalis (ATCC 750).
From the text: as §1, §2

For series [7], the system named is C. glabrata (ATCC 90030). The series can be described thus: microbe, parasite or virus in culture. In kind it is cell-based, Candida glabrata. As to conditions: Nakaseomyces glabratus, ATCC90030; RPMI-1640 pH 7.0, 2 × 10^3 cells/mL, 37°C, 24 h; peptides 400 to 0.78 μM; at least three experiments; read-out: Minimum inhibitory concentration, C. glabrata (ATCC 90030).
From the text: as §1, §2

In series [8] the test system is C. parapsilosis (ATCC 22019). The series can be described thus: microbe, parasite or virus in culture. In kind it is cell-based, Candida parapsilosis. The following applies: Lodderomyces parapsilosis, ATCC22019; RPMI-1640 pH 7.0, 2 × 10^3 cells/mL, 37°C, 24 h; peptides 400 to 0.78 μM; at least three experiments; read-out: Minimum inhibitory concentration, C. parapsilosis (ATCC 22019).
From the text: as §1, §2

In series [9] the test system is C. albicans (SC5314). Kind of series: microbe, parasite or virus in culture. The following applies: Candida albicans, SC5314; RPMI-1640 pH 7.0, 2 × 10^3 cells/mL, 37°C, 24 h; complete inhibition of visible growth; at least three experiments; read-out: Minimum inhibitory concentration, C. albicans (SC5314). It is filed as cell-based, Candida albicans.
From the text: as §1, §2

Series [10] is described as follows: Stability assays of native and modified peptide. In kind it is physicochemical. As to conditions: non-modified versus modified peptide.
Series [11] concerns peritoneal macrophages of BALB/c mice. Kind of series: Cytotoxic test using peritoneal macrophages (LDH release). It is filed as cell-based, mouse. As to conditions: 24 h, threshold of acceptable cytotoxicity 50% viability, three independent experiments. The procedure:
BALB/c mice were injected with thioglycolate 72 h before peritoneal macrophages were harvested. They were diluted to a concentration of 10^6 cell/mL in RPMI-1640 supplemented with penicillin/streptomycin (100 U/mL, 100 µg/mL), 2 mM L-glutamine, 2 mM non-essential amino acids, 1 mM sodium pyruvate (all reagents from Sigma-Aldrich, St Louis, MO, USA) and 10% fetal bovine serum (FBS), and incubated in 96-well polystyrene microplates at 37°C, 5% CO2 for 24 h. The peptides were added then and cells were further incubated for 24 h as described previously ([Cruz et al., 2005]). Three independent experiments were performed. Cytotoxic activity was evaluated by the release of cytoplasmic enzyme lactate dehydrogenase due to cell lysis using the Cytotox kit (Promega). Briefly, at the end of the incubation period, supernatants were collected, the adhered cells were washed and the toxicity was determined according to the manufacturer’s protocol. The procedures were approved by the Ethics Committee on Animal Research of Institute of Biology (UnBDOC 52657/2011)/University of Brasília (UnB).
A general note: LDH leaks from cells whose membrane has failed.

On to `C[C@@H]1[C@H](O)[C@@H](C)/C=C/C=C/C=C/C=C/C=C/C=C/C=C/[C@H](O[C@@H]2O[C@H](C)[C@@H](O)[C@H](N)[C@@H]2O)C[C@@H]2O[C@](O)(C[C@@H](O)C[C@@H](O)[C@H](O)CC[C@@H](O)C[C@@H](O)CC(=O)O[C@H]1C)C[C@H](O)[C@H]2C(=O)O` [Amp B, Amphotericin B], for which the SMIC50 in series [1] (4h biofilm, 50 µl supernatant read at OD 490nm) is listed as 0,08420 ug/mL; in series [1] (4h biofilm, 80 µl supernatant read at OD 490nm) it was 0,06812 ug/mL; in [1] (24h biofilm, 50 µl supernatant read at OD 490nm) it was 0,1919 ug/mL; in series [1] (24h biofilm, 80 µl supernatant read at OD 490nm) it was 0,1732 ug/mL; in series [1] (48h biofilm, 50 µl supernatant read at OD 490nm), 0,2857 ug/mL; in series [1] (48h biofilm, 80 µl supernatant read at OD 490nm), 0,2424 ug/mL. Besides, the MIC in series [2] worked out at 0.135 µM (≈ 0.125 µg/mL); in series [3], 0.27 µM (≈ 0.25 µg/mL); in series [6], 2.16 µM (≈ 2 µg/mL); in series [7] it was 1.08 µM (≈ 0.998 µg/mL); in series [8] it was 2.16 µM (≈ 2 µg/mL); in series [9], 1.08 µM (≈ 0.998 µg/mL). In addition, the “Reduction in biofilm viability, initial adherence” value in series [4] was “at least 80%”. The “Reduction in biofilm viability, three-dimensional architecture” value in series [5] was “at least 80%”.

In the case of FFGTLFKLGSKLIPGVMKLFSKKKER [ToAP2], in [10], the “Stability compared with the modified peptide” value is reported as “lower stability”. In addition, in [11], the “Concentrations showing low cytotoxicity” value is listed as “below 6.25 μM”.
